Results from patent US20230357310A1, “Saponin derivatives with improved therapeutic window” (priority 2019, published 2023).

Assays:
A431 cells = assay type: cell-based; conditions: A431, Table A6; read-out: IC50 nM (Toxicity)
[1] = Critical micellar concentration (ANS fluorescence); assay type: physicochemical; conditions: comparison in words
Procedure: The critical micellar concentration (CMC) of saponins derived from Saponaria officinalis (SO) (Table A7) and derived from Quillaja saponaria (QS) (Table A8, and Table A9) was determined by the method of DeVendittis et al. (A fluorimetric method for the estimation of the critical micelle concentration of surfactants, Analytical Biochemistry, Volume 115, Issue 2, August 1981, Pages 278-286) as follows:
The emission spectrum of 8-Anilinonaphthalene-1-sulfonic acid (ANS) in either purified water (MQ) or PBS (Dulbecco's PBS+/+) was determined at dry weight concentrations of saponins ranging from 1 to 1400 μM to cover the range below and above the CMC. Above the CMC, the fluorescence yield of ANS increases and the wavelength of maximum emission decreases due to portioning of the fluorescent dye into micelles. Fluorescence yields were recorded on a Fluoroskan Ascent FL (Thermo Scientific) at an excitation wavelength of 355 nm, and an emission wavelength of 460 nm. 6 μg at a concentration of 75.86 μM of ANS were used per sample and measurement.

In the case of `CC(=O)OC1C(C)OC(OC2C(C)OC(OC(=O)[C@]34CCC(C)(C)CC3C3=CCC5[C@@]6(C)CC[C@H](OC7OC(C(=O)NCCN8C(=O)C=CC8=O)C(O)C(OC8OCC(O)C(O)C8O)C7OC7OC(CO)C(O)C(O)C7O)[C@@](C)(C=O)C6CC[C@@]5(C)[C@]3(C)C[C@H]4O)C(OC3OC(C)C(OC4OCC(O)C(OC5OC(CO)C(O)C(O)C5O)C4O)C(O)C3O)C2O)C(O)C1OC1OCC(O)C(O)C1O` (some centres unmarked) [SO1861-Glu-AEM], the IC50 (A431 cells) is reported as greater than 100000 nM and the “CMC compared with native (underivatised) saponin” value [1] is reported as “lower CMC values”.
